From patent US4333944A, “8-Halo-6-phenyl-4H-s-triazolo (3,4-c) thieno 1,4-diazepin-1-ones” (Boehringer Ingelheim GmbH, priority 1977, dated 1982)

Legend:
[1] = system: lethal effect of 125 mgm/kg of pentylene tetrazole; assay: Pentetrazole antagonism, mouse; type: in vivo, mouse (albino, NMRI); settings: po, 1 h, peroral, suspension in olive oil, 125 mgm/kg pentylene tetrazole i.p. one hour after test compound, graphically determined
Experimental: (§1) Albino mice (NMRI) having a body weight of 20 to 25 gm or albino rats (FW49) having a body weight of 140 to 200 gm were used for the tests, and the test compound was in all cases administered perorally in suspension in olive oil by means of an esophageal sound.
(§2) The pentylene tetrazole is administered intraperitoneally one hour after administration of the test compound [see M. I. Gluckmann, Curr. Ther. Res. 7, 721 (1965)].
(§3) The values shown in the following table are graphically determined.

[2] = system: lethal effect of 125 mgm/kg of pentylene tetrazole; assay: Pentetrazole antagonism, rat; type: in vivo, rat (albino, FW49); settings: po, 1 h, peroral, suspension in olive oil, 125 mgm/kg pentylene tetrazole i.p. one hour after test compound, graphically determined
Experimental: as §1, §2, §3

[3] = system: test animals in a conflict situation; assay: Conflict situation (inhibition of passive avoidance); type: in vivo, rat (albino, FW49); settings: po; rat; peroral, suspension in olive oil; dose at which animals depress lever ten times despite signalled shock; graphically determined
From the text: as §1
Determination of the dose of the test compound (DT10) at which the test animals in a conflict situation depress a lever ten times to receive a food pellet, even though a simultaneous visual signal indicates to them that they will also receive an electrical shock at the same time [see J. Geller, Arch. Int. Pharmacodyn. 149, 243 (1964)].
as §3

Acute toxicity = assay: Acute toxicity; set-up: species or system mouse (albino, NMRI); settings: in vivo, po; mouse; peroral, suspension in olive oil; graphically determined
From the text: as §1
Determination of the median lethal dose (LD50), i.e. the dose which causes 50% of the test animals to die [Litchfield and Wilcoxon, J. Phamacol. Exper. Therap. 96,99 (1949)].
as §3

Compound `O=c1[nH]nc2n1-c1sc(Br)cc1C(c1ccccc1Cl)=NC2` [Example 1, 8-Bromo-6-(o-chloro-phenyl)-4H-s-triazolo[3,4-c]thieno-[2,3-e]1,4-diazepin-1-one] has an ED50 [1] of 0.37 mg/kg, an ED50 [2] of 1.9 mg/kg and an ED (DT10 (ten lever presses)) [3] of 1.25 mg/kg. It also gave an LD50 (Acute toxicity) greater than 2000 mg/kg.
